# Measurements taken from publication PMC9399641, “Inhibition mechanism of alpha-amylase, a diabetes target, by a steroidal pregnane and pregnane glycosides derived from Gongronema latifolium Benth” (Frontiers in Molecular Biosciences, 2022).
# Where two headings read alike, the source gives them in different places. Marks after values point to notes of the source that are not given here.
# Key:
# [1] = biological target: T1, alpha-amylase from porcine pancreas (Sus scrofa, UniProt P00690); assay: alpha-amylase inhibition assay (DNSA method); format: biochemical; conditions: for LogIC50: isolated compounds and acarbose, log of IC50 in uM
# T1 sequence (P00690 16-511): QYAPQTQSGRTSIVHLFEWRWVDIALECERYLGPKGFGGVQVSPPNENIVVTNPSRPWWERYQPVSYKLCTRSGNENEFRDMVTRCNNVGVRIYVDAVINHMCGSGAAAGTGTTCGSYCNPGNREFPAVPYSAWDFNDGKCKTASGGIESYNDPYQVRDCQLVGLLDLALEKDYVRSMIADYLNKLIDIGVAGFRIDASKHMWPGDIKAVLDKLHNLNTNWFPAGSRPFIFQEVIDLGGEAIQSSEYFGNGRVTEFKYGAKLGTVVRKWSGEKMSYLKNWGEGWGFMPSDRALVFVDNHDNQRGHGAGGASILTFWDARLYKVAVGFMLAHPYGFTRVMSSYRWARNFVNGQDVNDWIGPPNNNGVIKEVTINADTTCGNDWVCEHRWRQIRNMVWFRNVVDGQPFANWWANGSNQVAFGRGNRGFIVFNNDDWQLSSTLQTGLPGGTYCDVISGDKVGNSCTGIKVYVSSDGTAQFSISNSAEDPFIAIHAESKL
# Procedure: Varying concentrations of the pregnane-rich fractions (40–200 μg/ml) and those of the isolated compounds (10–50 μg/ml) were prepared in DMSO. Briefly, 100 μL of the test substance was reacted with 200 μl of alpha-amylase (alpha-amylase from porcine pancreas, EC 3.2.1.1, type VI, Sigma) and 100 μl of […] phosphate buffer (pH 6.9) of 0.02 M sodium phosphate (pH 6.9). Subsequent to incubation for 20 min, 100 μL of 1% starch substrate was added. Blank controls where the enzyme was replaced with the buffer were also prepared alongside. Following incubation of the reaction mixture for 5 min, 500 μl of dinitrosalicylic acid reagent was mixed with the control and the test. These were kept in a water bath at a boiling temperature for 5 min.
# The half-maximal inhibitory concentration (IC50) values were determined by fitting inhibition parameters with standard log inhibitor vs. normalized response models using nonlinear regression as described by [Buchwald (2020)].
# albino rats = assay: oral starch tolerance test; format: in vivo; conditions: for PBG / % reduction of AUC / % reduction of PBG / AUC: 3.0 g/kg starch; for PBG / AUC: mean ± SEM n = 4; for % reduction of AUC / % reduction of PBG: vs control; for blood glucose level: oral, starch-challenged rats; for AUC: blood glucose 0-120 min
# Procedure: The animal study was reviewed and approved by the University Ethical Review Committee of the University of Ilorin (Protocol Identification Code: UERC/LSC/183). An oral starch tolerance test was carried out as described in a previous study ([Poovitha and […], 2016]). […] After 10 min, the blood glucose level was estimated (0 min), and the rats were orally administered with 3.0 g/kg starch. Then, the blood glucose level was estimated at 30, 60, and 120 min after the administration using a glucometer. Peak blood glucose (PBG) was determined by observing the blood glucose level during the previously mentioned time intervals, and the area under the curve (AUC) was calculated.
Structure (SMILES),PBG (albino rats; 10 mg/kg oral),% reduction of AUC (albino rats; 10 mg/kg oral),% reduction of PBG (albino rats; 10 mg/kg oral),blood glucose level (albino rats; in words),IC50 [1],LogIC50 [1],IC50 ([1]; read-out: IC50),other results
"C[C@H]1O[C@H](O[C@H]2[C@H](O)[C@@H](O)[C@@H](O[C@H]3[C@H](O)[C@@H](O)C(O)O[C@@H]3CO)O[C@@H]2CO)[C@H](O)[C@@H](O)[C@@H]1N[C@H]1C=C(CO)[C@@H](O)[C@H](O)[C@H]1O (some centres unmarked) [Acarbose, acarbose, reference compound]",2.85 ± 0.05^ab mmol/L,7.00%,20.83%,significant decrease,–,–,–,"percentage inhibitory activity on porcine alpha-amylase ([1]; in words, fractions 40–200 μg/ml, compounds 10–50 μg/ml): greatest inhibition effects"
"COC1CC(OC2CCC3(C)C(=CCC4(O)C3C(O)C(O)C3(C)C(C(C)=O)CCC43O)C2)OC(C)C1OC1OC(C)C(O)C(OC)C1O [P3, 3-O-[6-deoxy-3-O-methyl-β-D-allopyranosyl-(1→4)-β-D-oleandropyranosyl]-17β-marsdenin]",–,–,–,–,14 µM,1.147,–,–
"COC1C(O)C(C)OC(OC2C(O)CC(OC3CCC4(C)C(=CCC5(O)C4C(O)C(O)C4(C)C(C(C)=O)CCC54O)C3)OC2C)C1O [P4, 3-O-[6-deoxy-3-O-methyl-β-D-allopyranosyl-(1→4)-β-D-canaropyranosyl]-17β-marsdenin]",–,–,–,–,–,1.137,13.7 µM,–
"CC(O)[C@H]1CC[C@@]2(O)[C@]1(C)[C@H](O)[C@@H](O)[C@@H]1[C@@]3(C)CC[C@H](O)CC3=CC[C@]12O (some centres unmarked) [P1, marsectohexol]",2.90 ± 0.10^ab mmol/L,6.36%,19.44%,significantly reduced,–,1.000,10 µM,"AUC (albino rats; 10 mg/kg oral): 883.5 ± 19.50 mmol·min/L; AUC (albino rats; 20 mg/kg oral): 699.0 ± 48.0 mmol·min/L; PBG (albino rats; 20 mg/kg oral): 2.15 ± 0.45^b mmol/L; % reduction of AUC (albino rats; 20 mg/kg oral): 25.91%; peak blood glucose (PBG) and area under the curve (AUC) (albino rats; 20 mg/kg oral, after starch loading, in words): significantly reduced; blood glucose level (albino rats; in words, listed as marsectohexol): significant decrease"
"CC=C(C)C(=O)OC1C2C3(C)CCC(OC4CC(OC)C(OC5OC(C)C(O)C(OC)C5O)C(C)O4)CC3=CCC2(O)C2(O)CCC(C(C)=O)C2(C)C1OC(=O)C(C)=CC [P2, 3-O-[6-deoxy-3-O-methyl-β-D-allopyranosyl-(1→14)-β-D-oleandropyranosyl]-11,12-di-O-tigloyl-17β-marsdenin]",–,–,–,–,12.1 µM,1.083,–,–
